# Reference: patent publication US9228009B2, “Multi-hierarchical self-assembly of a collagen mimetic peptide” (WILLIAM MARSH RICE UNIVERSITY, priority 2011, dated 2016)
# Non-standard residues stand in square brackets, D forms with d. Residues, ends and D or L forms follow the SMILES beside them. Hyp = O=C(O)[C@@H]1C[C@@H](O)CN1
# Legend:
# [1] = Hydrogel control in HBSS without collagenase; assay type: physicochemical; settings: no collagenase (HBSS), 2.0% by weight gel
# Procedure: (§1) As a simple functional test of the collagen hydrogel mimetic, we compared its ability to be broken down by collagenase (type IV, Invitrogen) the primary component of which is MMP2, a protease known to specifically cleave between the X and Gly residues of an X-Y-Gly repeat found in a triple helix.^42 (Pro-Lys-Gly)4(Pro-Hyp-Gly)4(Asp-Hyp-Gly)4 hydrogels were prepared at a concentration of 2.0% by weight in phosphate buffer and treated with either collagenase in HBSS (Hank's Balanced Salt Solution) or HBSS alone. The samples were allowed to incubate at room temperature (approximately 20° C.), 30° C. and 37° C. Hydrogels of rat-tail collagen were prepared in the same fashion with and without collagenase.
# (§2) Using the previously described gelation procedure, gels of (Pro-Lys-Gly)4(Pro-Hyp-Gly)4(Asp-Hyp-Gly)4 were prepared at a concentration of 2.0% by weight in 10 mM phosphate buffer. Directly after annealing, 100 μl of solution was pipetted into two wells of a 96-well cell culture plate and allowed to incubate at room temperature overnight. A 0.3% by weight collagenase type IV solution was prepared by dissolving 15.0 mg of non-sterile lyophilized enzyme into 5 ml of Hank's Balanced Salt Solution (HBSS). The solution was then filter sterilized using a 0.2 μm filter attached to a syringe. Enzyme and buffer were from Invitrogen (Carlsbad, Calif.). After gelation was complete, 150 μl of collagenase was added on top of one well and 150 μL of HBSS was added on the other serving as a control. Three plates were prepared and incubated at room temperature (about 20° C.), 30° C. and 37° C. Each condition was observed and imaged at 0, 1, 4, 6, 12, 24 and 48 hours after addition of the collagenase or HBSS. Plates containing rat-tail collagen gels at a concentration of 3.0% by weight were prepared and analyzed in an identical manner. Table 1 and Table 2 below show collagenase mediated degradation of (Pro-Lys-Gly)4(Pro-Hyp-Gly)4(Asp-Hyp-Gly)4 and rat-tail collagen hydrogels, respectively. Samples were tested at room temperature (approximately 20° C., 30° C. and 37° C.) with and without collagenase. […] Control samples of (Pro-Lys-Gly)4(Pro-Hyp-Gly)4(Asp-Hyp-Gly)4 at room temperature and 30° C. were intact after 48 hours. However at 37° C. the hydrogels dissolved after 24 hours due to the proximity of this temperature to the triple helices melting temperature.
# collagenase type IV = test: Collagenase degradation study of hydrogels; assay type: in vitro ADME; settings: for hydrogel degradation state: w/ collagenase
# Procedure: as §1, §2
# [2] = Circular dichroism thermal unfolding; assay type: physicochemical
# Procedure: All peptide concentrations were measured by weight. All samples were adjusted to pH 7 with sodium hydroxide prior to the addition of buffer and then annealed for 15 minutes at 85° C. Lastly, the samples were incubated at room temperature for at least 12 hours prior to characterization to ensure complete assembly. Time course rheological studies are given in FIG. 13 to support this time scale.
# All spectra and thermal unfolding studies were performed on a Jasco J-810 spectropolarimeter equipped with a Peltier temperature control system. Quartz cells were used with pathlengths of 0.01 cm and 0.1 cm depending on the peptide concentration and buffer. Spectra were collected from 190-250 nm. Melting experiments were performed from 5 to 85° C., monitoring at 225 nm, and the first derivative of the thermal unfolding curve was taken in order to determine the melting temperature of the sample. The molar residual ellipticity (MRE) is calculated from the measured ellipticity using the equation:
# [formula] where θ is the ellipticity in mdeg, m is the molecular weight in g/mol, c is the concentration in mg/ml, l is the pathlength of the cuvette in cm, and nr is the number of amino acids in the peptide. The spectrum for 1.0% by weight is only shown from 250-205 nm due to the increase in background noise for higher concentration samples at lower wavelengths.
# [3] = room temperature (approximately 20° C.)
molecule,measurement,setting,value
NCCCC[C@H](NC(=O)[C@@H]1CCCN1)C(=O)NCC(=O)N1CCC[C@H]1C(=O)N[C@@H](CCCCN)C(=O)NCC(=O)N1CCC[C@H]1C(=O)N[C@@H](CCCCN)C(=O)NCC(=O)N1CCC[C@H]1C(=O)N[C@@H](CCCCN)C(=O)NCC(=O)N1CCC[C@H]1C(=O)N1C[C@H](O)C[C@H]1C(=O)NCC(=O)N1CCC[C@H]1C(=O)N1C[C@H](O)C[C@H]1C(=O)NCC(=O)N1CCC[C@H]1C(=O)N1C[C@H](O)C[C@H]1C(=O)NCC(=O)N1CCC[C@H]1C(=O)N1C[C@H](O)C[C@H]1C(=O)NCC(=O)N[C@@H](CC(=O)O)C(=O)N1C[C@H](O)C[C@H]1C(=O)NCC(=O)N[C@@H](CC(=O)O)C(=O)N1C[C@H](O)C[C@H]1C(=O)NCC(=O)N[C@@H](CC(=O)O)C(=O)N1C[C@H](O)C[C@H]1C(=O)NCC(=O)N[C@@H](CC(=O)O)C(=O)N1C[C@H](O)C[C@H]1C(=O)NCC(=O)O [(Pro-Lys-Gly)4(Pro-Hyp-Gly)4(Asp-Hyp-Gly)4] (H-PKGPKGPKGPKGP[Hyp]GP[Hyp]GP[Hyp]GP[Hyp]GD[Hyp]GD[Hyp]GD[Hyp]GD[Hyp]G-OH; N-terminus assumed),hydrogel degradation state,"[1]; 20° C., 0 h",intact
same,hydrogel degradation state,"[1]; 20° C., 1 h",intact
same,hydrogel degradation state,"[1]; 20° C., 4 h",intact
same,hydrogel degradation state,"[1]; 20° C., 6 h",intact
same,hydrogel degradation state,"[1]; 20° C., 12 h",intact
same,hydrogel degradation state,"[1]; 20° C., 24 h",intact
same,hydrogel degradation state,"[1]; 20° C., 48 h",intact
same,hydrogel degradation state,"[1]; 30° C., 0 h",intact
same,hydrogel degradation state,"[1]; 30° C., 1 h",intact
same,hydrogel degradation state,"[1]; 30° C., 4 h",intact
same,hydrogel degradation state,"[1]; 30° C., 6 h",intact
same,hydrogel degradation state,"[1]; 30° C., 12 h",intact
same,hydrogel degradation state,"[1]; 30° C., 24 h",intact
same,hydrogel degradation state,"[1]; 30° C., 48 h",intact
same,hydrogel degradation state,"[1]; 37° C., 0 h",intact
same,hydrogel degradation state,"[1]; 37° C., 1 h",intact
same,hydrogel degradation state,"[1]; 37° C., 4 h",intact
same,hydrogel degradation state,"[1]; 37° C., 6 h",intact
same,hydrogel degradation state,"[1]; 37° C., 12 h",intact
same,hydrogel degradation state,"[1]; 37° C., 24 h",dissolved
same,hydrogel degradation state,"[1]; 37° C., 48 h",dissolved
same,time after which hydrogel treated with collagenase was fully dissolved,collagenase type IV; 30° C.,4 h
same,time after which hydrogel treated with collagenase was fully dissolved,collagenase type IV; 37° C.,1 h
same,time after which hydrogel treated with collagenase was fully dissolved,collagenase type IV; [3],4 h
same,hydrogel degradation state,"collagenase type IV; 20° C., 0 h, 2.0% by weight gel",intact
same,hydrogel degradation state,"collagenase type IV; 20° C., 1 h, 2.0% by weight gel",intact
same,hydrogel degradation state,"collagenase type IV; 20° C., 4 h, 2.0% by weight gel",dissolved
same,hydrogel degradation state,"collagenase type IV; 20° C., 6 h, 2.0% by weight gel",dissolved
same,hydrogel degradation state,"collagenase type IV; 20° C., 12 h, 2.0% by weight gel",dissolved
same,hydrogel degradation state,"collagenase type IV; 20° C., 24 h, 2.0% by weight gel",dissolved
same,hydrogel degradation state,"collagenase type IV; 20° C., 48 h, 2.0% by weight gel",dissolved
same,hydrogel degradation state,"collagenase type IV; 30° C., 0 h, 2.0% by weight gel",intact
same,hydrogel degradation state,"collagenase type IV; 30° C., 1 h, 2.0% by weight gel",intact
same,hydrogel degradation state,"collagenase type IV; 30° C., 4 h, 2.0% by weight gel",dissolved
same,hydrogel degradation state,"collagenase type IV; 30° C., 6 h, 2.0% by weight gel",dissolved
same,hydrogel degradation state,"collagenase type IV; 30° C., 12 h, 2.0% by weight gel",dissolved
same,hydrogel degradation state,"collagenase type IV; 30° C., 24 h, 2.0% by weight gel",dissolved
same,hydrogel degradation state,"collagenase type IV; 30° C., 48 h, 2.0% by weight gel",dissolved
same,hydrogel degradation state,"collagenase type IV; 37° C., 0 h, 2.0% by weight gel",intact
same,hydrogel degradation state,"collagenase type IV; 37° C., 1 h, 2.0% by weight gel",dissolved
same,hydrogel degradation state,"collagenase type IV; 37° C., 4 h, 2.0% by weight gel",dissolved
same,hydrogel degradation state,"collagenase type IV; 37° C., 6 h, 2.0% by weight gel",dissolved
same,hydrogel degradation state,"collagenase type IV; 37° C., 12 h, 2.0% by weight gel",dissolved
same,hydrogel degradation state,"collagenase type IV; 37° C., 24 h, 2.0% by weight gel",dissolved
same,hydrogel degradation state,"collagenase type IV; 37° C., 48 h, 2.0% by weight gel",dissolved
same,triple helix melting temperature,"[2]; 10 mM phosphate buffer, pH 7, first derivative of CD unfolding curve at 225 nm",40-41 °C
same,triple helix cooperative transition (melting) temperature,[2]; 1.0% by weight in phosphate,41 °C
same,melting transition,"[2]; gel-forming samples in additional buffers (water, Tris, PBS), pH 7",40-41 °C
same,melting temperature,"[2]; samples that did not form gels in additional buffers (water, Tris, PBS), pH 7",around 23 °C
Rat-tail Collagen: collagen type I harvested from rat-tail tendon; hydrogels at 3.0% by weight used as comparator [reference compound],time after which hydrogel treated with collagenase was fully dissolved,collagenase type IV; 30° C.,4 h
same,time after which hydrogel treated with collagenase was fully dissolved,collagenase type IV; 37° C.,1 h
same,time after which hydrogel treated with collagenase was fully dissolved,collagenase type IV; [3],4 h
same,hydrogel degradation state,"collagenase type IV; 20° C., 0 h, 3.0% by weight gel",intact
same,hydrogel degradation state,"collagenase type IV; 20° C., 1 h, 3.0% by weight gel",intact
same,hydrogel degradation state,"collagenase type IV; 20° C., 4 h, 3.0% by weight gel",dissolved
same,hydrogel degradation state,"collagenase type IV; 20° C., 6 h, 3.0% by weight gel",dissolved
same,hydrogel degradation state,"collagenase type IV; 20° C., 12 h, 3.0% by weight gel",dissolved
same,hydrogel degradation state,"collagenase type IV; 20° C., 24 h, 3.0% by weight gel",dissolved
same,hydrogel degradation state,"collagenase type IV; 20° C., 48 h, 3.0% by weight gel",dissolved
same,hydrogel degradation state,"collagenase type IV; 30° C., 0 h, 3.0% by weight gel",intact
same,hydrogel degradation state,"collagenase type IV; 30° C., 1 h, 3.0% by weight gel",intact
same,hydrogel degradation state,"collagenase type IV; 30° C., 4 h, 3.0% by weight gel",dissolved
same,hydrogel degradation state,"collagenase type IV; 30° C., 6 h, 3.0% by weight gel",dissolved
same,hydrogel degradation state,"collagenase type IV; 30° C., 12 h, 3.0% by weight gel",dissolved
same,hydrogel degradation state,"collagenase type IV; 30° C., 24 h, 3.0% by weight gel",dissolved
same,hydrogel degradation state,"collagenase type IV; 30° C., 48 h, 3.0% by weight gel",dissolved
same,hydrogel degradation state,"collagenase type IV; 37° C., 0 h, 3.0% by weight gel",intact
same,hydrogel degradation state,"collagenase type IV; 37° C., 1 h, 3.0% by weight gel",dissolved
same,hydrogel degradation state,"collagenase type IV; 37° C., 4 h, 3.0% by weight gel",dissolved
same,hydrogel degradation state,"collagenase type IV; 37° C., 6 h, 3.0% by weight gel",dissolved
same,hydrogel degradation state,"collagenase type IV; 37° C., 12 h, 3.0% by weight gel",dissolved
same,hydrogel degradation state,"collagenase type IV; 37° C., 24 h, 3.0% by weight gel",dissolved
same,hydrogel degradation state,"collagenase type IV; 37° C., 48 h, 3.0% by weight gel",dissolved
